{"source": "patent US20230278972A1", "about": "“SUBSTITUTED HALOALKYL SULFONANILIDE HERBICIDES” (FMC Corporation, priority 2020, published 2023)", "key": {"[1]": {"system": "kochia (Bassia scoparia)", "test": "Test A preemergence, kochia", "format": "in vivo", "details": "Bassia scoparia, pre-emergence, 240 h, Preemergence", "summary_of_the_method": "(§1)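 Test chemicals, formulated in a non-phytotoxic solvent mixture with surfactant, were sprayed postemergence on plants 2 to 10 cm tall at the one- to two-leaf stage. Preemergence treatment was a directed soil spray onto freshly seeded pots. Both used a loam soil and sand blend.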"}, "[2]": {"system": "ragweed (common ragweed, Ambrosia artemisiifolia)", "test": "Test A preemergence, ragweed", "format": "in vivo", "details": "Ambrosia artemisiifolia, pre-emergence, 240 h, Preemergence", "summary_of_the_method": "as §1"}, "[3]": {"system": "kochia (Bassia scoparia)", "test": "Test A postemergence, kochia", "format": "in vivo", "details": "Bassia scoparia, post-emergence, 240 h, Postemergence, 0 to 100 scale (0 no effect, 100 complete control), read-out: Plant response rating, Kochia", "summary_of_the_method": "as §1"}, "[4]": {"system": "Ryegrass, Italian (Italian ryegrass, Lolium multiflorum)", "test": "Test A postemergence, Ryegrass, Italian", "format": "in vivo", "details": "Lolium multiflorum, post-emergence, 240 h, Postemergence, 0 to 100 scale (0 no effect, 100 complete control), read-out: Plant response rating, Ryegrass, Italian", "summary_of_the_method": "as §1"}, "[5]": {"system": "rice (Oryza sativa)", "test": "Test B flooded paddy test, rice", "details": "336 h, read-out: Plant response rating, Rice"}, "[6]": {"details": "500 g ai/ha, visual injury approx. 10 days"}}, "data": [{"smiles": "Cc1cc(C)c(C(=O)N2CCC(F)(F)CC2)cc1NS(=O)(=O)C(F)(F)F", "note": "[Compound 241, N-[5-[(4,4-Difluoro-1-piperidinyl)carbonyl]-2,4-dimethylphenyl]-1,1,1-trifluoromethanesulfonamide]", "values": [{"measurement": "pest or weed control at 125 g/ha", "setting": "[1]; 125 g ai/ha, visual injury, 0 to 100 scale (0 no effect, 100 complete control), approx. 10 days, read-out: Plant response rating, Kochia", "result": 70, "unit": "%"}, {"measurement": "pest or weed control at 500 g/ha", "setting": "[1]; 500 g ai/ha, visual injury on 0 to 100 scale (0 no effect, 100 complete control), approximately 10 days, read-out: Kochia plant response rating", "result": 100, "unit": "%"}, {"measurement": "pest or weed control at 125 g/ha", "setting": "[2]; 125 g ai/ha, visual injury, 0 to 100 scale (0 no effect, 100 complete control), approx. 10 days, read-out: Plant response rating, Ragweed", "result": 70, "unit": "%"}, {"measurement": "pest or weed control at 500 g/ha", "setting": "[2]; 500 g ai/ha, visual injury on 0 to 100 scale (0 no effect, 100 complete control), approximately 10 days, read-out: Ragweed plant response rating", "result": 90, "unit": "%"}, {"measurement": "pest or weed control at 125 g/ha", "setting": "[3]; 125 g ai/ha", "result": 60, "unit": "%"}, {"measurement": "pest or weed control at 500 g/ha", "setting": "[3]; [6]", "result": 90, "unit": "%"}, {"measurement": "pest or weed control at 125 g/ha", "setting": "[4]; 125 g ai/ha", "result": 0, "unit": "%"}, {"measurement": "pest or weed control at 500 g/ha", "setting": "[4]; [6]", "result": 70, "unit": "%"}, {"measurement": "plant injury at 250 g/ha", "setting": "[5]", "result": 25, "unit": "%"}]}]}
